In patent publication US5654290A, “Polyunsaturated fatty acid based drugs” (Institut National de la Sante et de la Recherche Medicale, priority 1992, dated 1997):
Values joined by “and” are separate entries in the source; they are usually repeats but may differ in a detail not shown here. Equal entries are not always repeated. Where two headings read alike, the source gives them in different places. Each block holds one compound with its values, some of them ahead of it.

Tests used:
[1] = target: T1, TXA2 /PGH2 receptor of the platelet membranes (Homo sapiens, UniProt P21731); assay: Specific binding of tritiated SQ29,548 to the TXA2/PGH2 receptor of platelet membranes whose PC's or PE's are enriched in 18:2n-6 or DHA; details: for effect on the TXA2 /PGH2 receptor (dissociation constant of SQ29.548): platelet membranes enriched, in words
T1 construct: TXA2 /PGH2 receptor, to platelet membranes whose PC's or PE's are enriched either in 18:2n-6 or in DHA; from tissue; host or cells: platelet membranes (phospholipids exchanged with maize or endogenous platelet transfer protein)
T1 sequence (P21731 1-343): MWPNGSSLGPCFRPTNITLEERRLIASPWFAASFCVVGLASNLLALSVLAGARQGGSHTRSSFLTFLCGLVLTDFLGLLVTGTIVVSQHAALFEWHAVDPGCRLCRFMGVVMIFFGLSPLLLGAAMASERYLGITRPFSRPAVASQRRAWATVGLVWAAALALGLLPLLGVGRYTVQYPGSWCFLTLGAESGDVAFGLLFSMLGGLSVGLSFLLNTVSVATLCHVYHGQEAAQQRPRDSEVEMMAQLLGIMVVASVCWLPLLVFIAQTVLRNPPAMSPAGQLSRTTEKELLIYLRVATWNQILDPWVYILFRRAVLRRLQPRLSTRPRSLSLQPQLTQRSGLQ
Protocol: The diacyl-glycerophosphocholines of the platelet membranes were replaced either with 1-palmitoyl-2-docosa-hexaenoyl-glycerophosphocholine (bars with vertical stripes, "22:6n-3"), or with 1-palmitoyl-2-linoloyl-glycerophosphocholine (bars with horizontal stripes, "18:2n-6"), using the endogenous transfer protein of the platelets which is specific for the phosphatidylinositols and phosphatidylcholines. The control platelet membranes (black bars, "control") are obtained by incubation without addition of phospholipids. The data for the graph represent the mean±S.D. of three independent tests.
The diacyl-glycerophosphoethanolamines of the platelet membranes were replaced either with 1-palmitoyl-2-docosahexaenoyl-glycerophosphoethanolamine (bars with vertical stripes, "22:6n-3"), or with 1-palmitoyl-2-linoloyl-glycerophosphoethanolamine (bars with horizontal stripes "18:2n-6"), using the lipid transfer protein purified from maize. The control platelet membranes (black bars, "control") are obtained by incubation without addition of phospholipids. The data for the graph represent the mean±S.D. of three independent tests.
Preparations of esterified DHA into various classes of phospholipids were carried out using phospholipid transfer proteins in order to enrich, in a specific manner, the phosphatidylcholines (PC) and the phosphatidylethanolamines (PE) of the platelet membranes in linoleic acid (18:2n-6) and in DHA (49). In particular, the transfer protein (PT), which is specific for the PC's and purified from bovine liver, was used to modify the composition of molecular species of the PC's of erythrocytes (49).
In the procedure used in the present example, the endogenous quantity of platelet phospholipids is not altered by the transfer carried out by means of the maize or platelet PT; nevertheless, the phospholipids were enriched in 18:2n-6 or in DHA.
The influence of the fatty acids on the TXA2 /PGH2 receptor was established by measuring the specific binding of tritiated SQ29,548, a competitive antagonist of the TXA2 /PGH2 receptor, to platelet membranes whose PC's or PE's are enriched either in 18:2n-6 or in DHA.

brain = assay: Distribution of the radioactivity between the lipid classes of the brain after intravenous injection of lyso-PCDHA or non-esterified DHA; assay type: in vivo, rat; details: injection of non-esterified DHA
Source text: (§1) The animal studied is a 20-day-old rat in which the cerebral lipid metabolism is at its peak.
(§2) The lyso-PC's are labelled on the fatty acid and the choline, attached to albumin and administered intravenously (50). […] It therefore appears that the lyso-PCDHA's attached to albumin constitute a particularly preferred form of supply of DHA to the developing brain.

kidney = assay: Capture by the kidney, in rats, of lyso-PCDHA and non-esterified DHA; assay type: in vivo; details: 20-day-old rat, intravenous; lyso-PCDHA vs non-esterified DHA
Source text: FIG. 3 represents the variation of the radio-activity recovered in the total lipids: A from the brain, B from the kidney, C from the heart and D from the liver, after injecting tritiated DHA in free form (black circle) or in the form of 2-DHA-1-lyso-PC (black triangle).
as §1, §2

[2] = individual test, platelet membranes, PC's enriched
[3] = mean of three tests, PC's enriched
[4] = individual test, platelet membranes, PE's enriched
[5] = individual test, platelet membranes, PE's enriched, read-out: Kd of SQ 29.548
[6] = mean of three tests, PE's enriched
[7] = mean of three tests, PE's enriched, read-out: Kd of SQ 29.548

Structure (SMILES): CCCCC/C=C\C/C=C\CCCCCCCC(=O)OC(COC(=O)CCCCCCCCCCCCCCC)COP(=O)([O-])OCC[N+](C)(C)C (stereo not shown) [PC 18:2n-6, 1-palmitoyl-2-linoloyl-glycerophosphocholine]
- Kd ([1]; Kd of SQ 29.548, individual test, platelet membranes, PC's enriched): 4.64 nM and 3.16 nM and 4.05 nM
- Kd ([1]; Kd of SQ 29.548, mean of three tests, PC's enriched, (a) p < 0.05 compared with the control and with PC 18:2n6 for PC 22:6n-3): 3.95 ± 0.75 nM
- Bmax of SQ 29.548 [1, 2]: 1.83 pmol/mg prot. and 1.91 pmol/mg prot. and 2.41 pmol/mg prot.
- Hill Coefficient [1, 2]: 1.00 and 0.94 and 0.90
- Bmax of SQ 29.548 [1, 3]: 2.05 ± 0.31 pmol/mg prot.
- Hill Coefficient [1, 3]: 0.95 ± 0.05
- effect on the TXA2 /PGH2 receptor (dissociation constant of SQ29.548) [1]: no effect on the receptor

- Hill Coefficient [1, 2]: 0.91 and 1.00 and 0.94
- Kd ([1]; individual test, platelet membranes, PC's enriched, read-out: Kd of SQ 29.548): 5.69 nM and 8.56 nM and 7.05 nM
- Bmax of SQ 29.548 [1, 3]: 2.48 ± 0.43 pmol/mg prot.
- Hill Coefficient [1, 3]: 0.95 ± 0.05
- Kd ([1]; mean of three tests, PC's enriched, (a) p < 0.05 compared with the control and with PC 18:2n6 for PC 22:6n-3, read-out: Kd of SQ 29.548): 7.1 ± 1.44 nM
Structure (SMILES): CC/C=C\C/C=C\C/C=C\C/C=C\C/C=C\C/C=C\CCC(=O)OC(COC(=O)CCCCCCCCCCCCCCC)COP(=O)([O-])OCC[N+](C)(C)C (stereo not shown) [PC 22:6n-3, 1-palmitoyl-2-docosahexaenoyl-glycerophosphocholine]
- Bmax of SQ 29.548 [1, 2]: 2.94 pmol/mg prot. and 2.09 pmol/mg prot. and 2.40 pmol/mg prot.
- effect on the TXA2 /PGH2 receptor (dissociation constant of SQ29.548) [1]: significantly increasing the dissociation constant of SQ29.548

- Hill Coefficient [1, 4]: 0.94 and 1.00 and 1.05
- Kd [1, 5]: 3.11 nM and 4.31 nM and 4.92 nM
- Bmax of SQ 29.548 [1, 6]: 2.07 ± 0.19 pmol/mg prot.
- Hill Coefficient [1, 6]: 1.00 ± 0.06
- Kd [1, 7]: 4.11 ± 0.92 nM
- effect on the TXA2 /PGH2 receptor (dissociation constant of SQ29.548) [1]: no effect on the receptor
Structure (SMILES): CCCCC/C=C\C/C=C\CCCCCCCC(=O)OC(COC(=O)CCCCCCCCCCCCCCC)COP(=O)(O)OCCN (stereo not shown) [PE 18:2n-6, 1-palmitoyl-2-linoloyl-glycerophosphoethanolamine]
- Bmax of SQ 29.548 [1, 4]: 1.89 pmol/mg prot. and 2.26 pmol/mg prot. and 2.07 pmol/mg prot.

- Hill Coefficient [1, 4]: 0.95 and 1.02
- Kd [1, 5]: 2.92 nM and 4.61 nM and 4.63 nM
- Bmax of SQ 29.548 [1, 6]: 1.86 ± 0.17 pmol/mg prot.
- Hill Coefficient [1, 6]: 1.00 ± 0.04
- Kd [1, 7]: 4.05 ± 0.98 nM
- effect on the TXA2 /PGH2 receptor (dissociation constant of SQ29.548) [1]: no effect on the receptor
Structure (SMILES): CC/C=C\C/C=C\C/C=C\C/C=C\C/C=C\C/C=C\CCC(=O)OC(COC(=O)CCCCCCCCCCCCCCC)COP(=O)(O)OCCN (stereo not shown) [PE 22:6n-3, 1-palmitoyl-2-docosahexaenoyl-glycerophosphoethanolamine]
- Bmax of SQ 29.548 [1, 4]: 1.67 pmol/mg prot. and 1.99 pmol/mg prot. and 1.91 pmol/mg prot.

Structure (SMILES): CC/C=C\C/C=C\C/C=C\C/C=C\C/C=C\C/C=C\CCC(=O)O [non-esterified DHA, docosahexaenoic acid, reference compound]
- radioactivity in LN + AG of the brain (brain; 2.5 min): 36.7 % of the radioactivity of the total lipids
- radioactivity in PC of the brain (brain; 2.5 min): 18.8 % of the radioactivity of the total lipids
- radioactivity in PE of the brain (brain; 2.5 min): 37.5 % of the radioactivity of the total lipids
- radioactivity in PI of the brain (brain; 2.5 min): 2.7 % of the radioactivity of the total lipids
- radioactivity in PS of the brain (brain; 2.5 min): 4.0 % of the radioactivity of the total lipids
- radioactivity in LN + AG of the brain (brain; 5 min): 19.0 % of the radioactivity of the total lipids
- radioactivity in PC of the brain (brain; 5 min): 23.2 % of the radioactivity of the total lipids
- radioactivity in PE of the brain (brain; 5 min): 48.1 % of the radioactivity of the total lipids
- radioactivity in PI of the brain (brain; 5 min): 5.1 % of the radioactivity of the total lipids
- radioactivity in PS of the brain (brain; 5 min): 4.6 % of the radioactivity of the total lipids
- radioactivity in LN + AG of the brain (brain; 7.5 min): 30.0 % of the radioactivity of the total lipids
- radioactivity in PC of the brain (brain; 7.5 min): 21.1 % of the radioactivity of the total lipids
- radioactivity in PE of the brain (brain; 7.5 min): 44.4 % of the radioactivity of the total lipids
- radioactivity in PI of the brain (brain; 7.5 min): 2.6 % of the radioactivity of the total lipids
- radioactivity in PS of the brain (brain; 7.5 min): 1.8 % of the radioactivity of the total lipids
- radioactivity in LN + AG of the brain (brain; 8 min): 31.6 % of the radioactivity of the total lipids
- radioactivity in PC of the brain (brain; 8 min): 19.6 % of the radioactivity of the total lipids
- radioactivity in PE of the brain (brain; 8 min): 40.7 % of the radioactivity of the total lipids
- radioactivity in PI of the brain (brain; 8 min): 3.8 % of the radioactivity of the total lipids
- radioactivity in PS of the brain (brain; 8 min): 4.3 % of the radioactivity of the total lipids
- radioactivity in LN + AG of the brain (brain; 15 min): 20.8 % of the radioactivity of the total lipids
- radioactivity in PC of the brain (brain; 15 min): 25.7 % of the radioactivity of the total lipids
- radioactivity in PE of the brain (brain; 15 min): 49.1 % of the radioactivity of the total lipids
- radioactivity in PI of the brain (brain; 15 min): 3 % of the radioactivity of the total lipids
- radioactivity in PS of the brain (brain; 15 min): 2.9 % of the radioactivity of the total lipids
- radioactivity in LN + AG of the brain (brain; 30 min): 20.4 % of the radioactivity of the total lipids
- radioactivity in PC of the brain (brain; 30 min): 24.8 % of the radioactivity of the total lipids
- radioactivity in PE of the brain (brain; 30 min): 48.4 % of the radioactivity of the total lipids
- radioactivity in PI of the brain (brain; 30 min): 3.4 % of the radioactivity of the total lipids
- radioactivity in PS of the brain (brain; 30 min): 2.9 % of the radioactivity of the total lipids
- radioactivity in LN + AG of the brain (brain; 60 min): 12.5 % of the radioactivity of the total lipids
- radioactivity in PC of the brain (brain; 60 min): 24.3 % of the radioactivity of the total lipids
- radioactivity in PE of the brain (brain; 60 min): 54.1 % of the radioactivity of the total lipids
- radioactivity in PI of the brain (brain; 60 min): 2.8 % of the radioactivity of the total lipids
- radioactivity in PS of the brain (brain; 60 min): 6.3 % of the radioactivity of the total lipids
- capture by the kidney (kidney): captures the two forms of supply in essentially the same manner
